Data: patent US12492188B2, “1H-benzo[D]imidazole derivatives as TLR9 inhibitors for the treatment of fibrosis” (BRISTOL-MYERS SQUIBB COMPANY, priority 2020, dated 2025)
Read-outs that look alike come from different tables or passages of the source.

Columns and labels:
Assay type in all cases: cell-based
human TLR8 = target: T1, human TLR8 (Homo sapiens, UniProt Q9NR97); experiment: TLR8 inhibition reporter assay (HEK-Blue cells, secreted embryonic alkaline phosphatase reporter); settings: HEK-Blue cells overexpressing human TLR8, stimulated with R848 15.9 μM; read-out: TLR 8 IC50
T1 construct: host or cells: HEK-Blue cells (HEK293-derived reporter line)
T1 sequence (Q9NR97 27-1041): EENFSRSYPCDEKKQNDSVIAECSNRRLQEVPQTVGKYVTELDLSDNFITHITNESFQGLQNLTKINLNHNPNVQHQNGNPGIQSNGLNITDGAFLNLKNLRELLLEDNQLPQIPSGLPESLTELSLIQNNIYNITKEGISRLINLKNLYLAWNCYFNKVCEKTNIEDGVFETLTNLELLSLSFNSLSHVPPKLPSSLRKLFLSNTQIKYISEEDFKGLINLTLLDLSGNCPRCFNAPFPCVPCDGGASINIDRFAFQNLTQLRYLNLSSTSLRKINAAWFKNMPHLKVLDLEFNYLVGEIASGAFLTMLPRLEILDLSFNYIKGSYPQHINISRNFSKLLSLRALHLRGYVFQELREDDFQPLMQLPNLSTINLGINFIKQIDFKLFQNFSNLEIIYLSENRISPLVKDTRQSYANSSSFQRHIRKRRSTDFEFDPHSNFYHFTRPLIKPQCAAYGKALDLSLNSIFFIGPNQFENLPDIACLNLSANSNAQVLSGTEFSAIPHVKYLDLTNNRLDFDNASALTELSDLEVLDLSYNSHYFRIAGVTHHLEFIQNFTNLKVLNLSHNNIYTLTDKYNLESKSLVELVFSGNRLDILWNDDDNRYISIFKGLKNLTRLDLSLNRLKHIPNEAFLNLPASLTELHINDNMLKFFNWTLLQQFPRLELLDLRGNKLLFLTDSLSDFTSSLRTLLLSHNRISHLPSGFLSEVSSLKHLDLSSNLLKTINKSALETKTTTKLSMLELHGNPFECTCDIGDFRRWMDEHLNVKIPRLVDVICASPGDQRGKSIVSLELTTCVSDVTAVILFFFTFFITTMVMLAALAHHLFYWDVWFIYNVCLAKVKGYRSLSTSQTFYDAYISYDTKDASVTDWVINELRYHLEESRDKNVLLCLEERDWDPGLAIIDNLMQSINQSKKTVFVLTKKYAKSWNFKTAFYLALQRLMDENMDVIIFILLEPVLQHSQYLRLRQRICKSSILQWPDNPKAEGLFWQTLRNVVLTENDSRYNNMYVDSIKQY
Procedure, shortened: (§1)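 HEK-Blue cells overexpressing the respective receptor, with an NF-κB/AP-1-driven SEAP reporter, were pre-treated with compound (0.05 nM–50 μM) for 30 min at room temperature. Stimulation used gardiquimod 7.5 μM (TLR7), R848 15.9 μM (TLR8) or ODN2006 5 nM (TLR9); SEAP was read after 22 h at 37 °C as percent inhibition.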

human TLR9 = target: T2, human TLR9 (Homo sapiens, UniProt Q9NR96); experiment: TLR9 inhibition reporter assay (HEK-Blue cells, secreted embryonic alkaline phosphatase reporter)
T2 construct: host or cells: HEK-Blue cells (HEK293-derived reporter line)
T2 sequence (Q9NR96 26-1032): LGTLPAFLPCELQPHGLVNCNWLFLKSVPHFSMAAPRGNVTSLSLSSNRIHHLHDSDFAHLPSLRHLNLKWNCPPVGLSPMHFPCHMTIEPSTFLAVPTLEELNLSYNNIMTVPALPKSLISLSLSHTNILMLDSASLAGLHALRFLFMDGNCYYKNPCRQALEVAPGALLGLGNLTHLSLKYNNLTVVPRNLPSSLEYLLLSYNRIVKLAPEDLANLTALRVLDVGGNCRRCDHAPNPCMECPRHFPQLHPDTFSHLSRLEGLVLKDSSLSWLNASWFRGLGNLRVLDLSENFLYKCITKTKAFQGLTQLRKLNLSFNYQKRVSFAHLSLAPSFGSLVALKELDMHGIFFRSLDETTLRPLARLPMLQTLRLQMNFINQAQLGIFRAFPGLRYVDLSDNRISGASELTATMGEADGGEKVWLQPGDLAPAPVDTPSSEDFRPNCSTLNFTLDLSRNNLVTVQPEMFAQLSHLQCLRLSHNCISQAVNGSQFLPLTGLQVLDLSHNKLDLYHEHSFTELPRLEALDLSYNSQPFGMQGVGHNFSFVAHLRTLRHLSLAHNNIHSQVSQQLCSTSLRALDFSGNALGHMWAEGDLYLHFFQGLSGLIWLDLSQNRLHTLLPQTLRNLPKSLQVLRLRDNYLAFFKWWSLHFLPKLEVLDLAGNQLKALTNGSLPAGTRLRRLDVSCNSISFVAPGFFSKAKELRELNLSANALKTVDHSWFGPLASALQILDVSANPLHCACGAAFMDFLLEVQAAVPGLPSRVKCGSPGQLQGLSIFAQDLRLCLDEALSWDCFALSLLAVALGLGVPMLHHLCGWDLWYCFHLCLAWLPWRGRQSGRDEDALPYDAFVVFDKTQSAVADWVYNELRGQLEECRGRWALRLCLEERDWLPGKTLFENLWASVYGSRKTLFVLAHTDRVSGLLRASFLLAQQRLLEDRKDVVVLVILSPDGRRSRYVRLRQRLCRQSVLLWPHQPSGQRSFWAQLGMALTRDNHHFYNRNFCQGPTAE
Procedure, shortened: as §1

human TLR7 = target: T3, human TLR7 (Homo sapiens, UniProt Q9NYK1); experiment: TLR7 inhibition reporter assay (HEK-Blue cells, secreted embryonic alkaline phosphatase reporter); settings: HEK-Blue cells overexpressing human TLR7, stimulated with gardiquimod 7.5 μM; read-out: TLR 7 IC50
T3 construct: host or cells: HEK-Blue cells (HEK293-derived reporter line)
T3 sequence (Q9NYK1 27-1049): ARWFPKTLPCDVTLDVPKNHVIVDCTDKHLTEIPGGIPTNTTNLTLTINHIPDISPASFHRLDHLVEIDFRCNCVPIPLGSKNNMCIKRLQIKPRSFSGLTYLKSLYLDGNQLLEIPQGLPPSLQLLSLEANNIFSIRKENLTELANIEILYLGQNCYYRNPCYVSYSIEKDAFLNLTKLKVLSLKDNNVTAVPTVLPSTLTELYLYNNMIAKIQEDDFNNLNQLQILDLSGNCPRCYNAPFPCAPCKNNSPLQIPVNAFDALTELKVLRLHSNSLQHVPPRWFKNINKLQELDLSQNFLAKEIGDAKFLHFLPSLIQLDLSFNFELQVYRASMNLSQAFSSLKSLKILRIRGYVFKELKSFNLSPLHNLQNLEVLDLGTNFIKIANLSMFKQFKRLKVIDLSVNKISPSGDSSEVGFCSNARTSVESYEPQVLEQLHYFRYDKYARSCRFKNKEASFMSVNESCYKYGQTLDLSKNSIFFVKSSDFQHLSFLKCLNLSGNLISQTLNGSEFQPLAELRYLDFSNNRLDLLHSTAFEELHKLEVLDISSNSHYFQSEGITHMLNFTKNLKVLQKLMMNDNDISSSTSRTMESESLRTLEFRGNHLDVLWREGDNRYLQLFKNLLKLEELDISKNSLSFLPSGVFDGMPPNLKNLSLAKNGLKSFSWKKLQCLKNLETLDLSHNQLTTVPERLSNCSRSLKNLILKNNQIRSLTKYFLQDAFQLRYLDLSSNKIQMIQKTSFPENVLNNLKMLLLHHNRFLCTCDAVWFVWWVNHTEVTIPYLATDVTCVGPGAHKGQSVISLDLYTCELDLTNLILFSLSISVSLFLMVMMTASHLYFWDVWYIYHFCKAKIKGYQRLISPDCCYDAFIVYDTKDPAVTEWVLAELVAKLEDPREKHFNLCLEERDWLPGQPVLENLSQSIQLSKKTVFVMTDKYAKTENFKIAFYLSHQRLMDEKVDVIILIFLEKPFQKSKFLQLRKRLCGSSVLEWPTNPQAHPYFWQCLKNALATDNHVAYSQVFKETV
Procedure, shortened: as §1

[1] = HEK-Blue cells overexpressing human TLR9, stimulated with ODN2006 5 nM, 22 hour incubation, reporter readout
[2] = HEK-Blue cells overexpressing human TLR9, stimulated with ODN2006 5 nM, read-out: TLR 9 IC50

SMILES | IC50 (human TLR8) | IC50 (human TLR9; [1]) | IC50 (human TLR9; [2]) | IC50 (human TLR7) | IC50 (human TLR9) | IC50 (human TLR9; HEK-Blue human TLR9 reporter cells)
COc1ccc(-c2nc3c(C)cc(C4CCN(C5CCN(C6CC6)CC5)CC4)cc3n2C)cc1OC [Example 46, 6-(1′-cyclopropyl-[1,4′-bipiperidin]-4-yl)-2-(3,4-dimethoxyphenyl)-1,4-dimethyl-1H-benzo[d]imidazole tris(2,2,2-trifluoroacetate)] | > 50000 nM | 170 nM | 610 nM | 18000 nM | – | –
Cn1c(-c2ccc(S(C)(=O)=O)cc2)nc2cc(C3CCN(C4CC5CCC(C4)N5C4CCOCC4)CC3)cc(F)c21 (centres unmarked) [Example 211, 7-fluoro-1-methyl-2-(4-(methylsulfonyl)phenyl)-5-(1-(8-(tetrahydro-2H-pyran-4-yl)-8-azabicyclo[3.2.1]octan-3-yl)piperidin-4-yl)-1H-benzo[d]imidazole] | > 50000 nM | – | 165 nM | > 50000 nM | 270 nM | –
Cn1c(-c2ccc(S(C)(=O)=O)cc2)nc2cc(C3CCN(C4CC5CCC(C4)N5C4CCC4)CC3)c(F)cc21 (centres unmarked) [Example 251, 5-(1-(8-cyclobutyl-8-azabicyclo[3.2.1]octan-3-yl)piperidin-4-yl)-6-fluoro-1-methyl-2-(4-(methylsulfonyl)phenyl)-1H-benzo[d]imidazole] | > 50000 nM | – | 71 nM | 19500 nM | 71 nM | –
COCCN1CCCC(N2CCC(c3cc(F)c4nc(-c5ccc(S(C)(=O)=O)cc5)n(C)c4c3)CC2)CC1 (single isomer, unassigned) [Example 302, 4-fluoro-6-(1-(1-(2-methoxyethyl)azepan-4-yl)piperidin-4-yl)-1-methyl-2-(4-(methylsulfonyl)phenyl)-1H-benzo[d]imidazole] | > 50000 nM | – | 48 nM | 1900 nM | – | 48 nM
Cn1c(-c2ccc(S(C)(=O)=O)cc2)nc2cc(C3CCN(C4CCN(C5COC5)CC4)CC3)c(F)cc21 [Example 244, 6-fluoro-1-methyl-2-(4-(methylsulfonyl)phenyl)-5-(1′-(oxetan-3-yl)-[1,4′-bipiperidin]-4-yl)-1H-benzo[d]imidazole] | > 50000 nM | – | 3570 nM | > 50000 nM | 3600 nM | –
Cn1c(-c2ccc(S(C)(=O)=O)cc2)nc2c(F)c(C3CCN(C4CC5CCC(C4)N5CC4CC4)CC3)ccc21 (single isomer, unassigned) [Example 191, 5-(1-(8-(cyclopropylmethyl)-8-azabicyclo[3.2.1]octan-3-yl)piperidin-4-yl)-4-fluoro-1-methyl-2-(4-(methylsulfonyl)phenyl)-1H-benzo[d]imidazole] | > 50000 nM | – | 96 nM | 3800 nM | 96 nM | –
Cc1cc(C2CCN(C3CC4CCC(C3)N4C3CCC3)CC2)cc2c1nc(-c1ccc(S(C)(=O)=O)cc1)n2C (single isomer, unassigned) [Example 152, 6-(1-(8-cyclobutyl-8-azabicyclo[3.2.1]octan-3-yl)piperidin-4-yl)-1,4-dimethyl-2-(4-(methylsulfonyl)phenyl)-1H-benzo[d]imidazole] | > 25000 nM | – | 84 nM | 14700 nM | 84 nM | –
COc1ccc(-c2nc3cc(C4CCN(C5CCN(C6CC6)CC5)CC4)ccc3n2C(C)C)cc1OC [Example 37, 5-(1′-cyclopropyl-[1,4′-bipiperidin]-4-yl)-2-(3,4-dimethoxyphenyl)-1-isopropyl-1H-benzo[d]imidazole] | > 50000 nM | 390 nM | 388 nM | 7500 nM | – | –
Cc1cc(C2CCN(C3CC4CCC(C3)N4CC3CC3)CC2)cc2c1nc(-c1ccc(S(C)(=O)=O)cc1)n2C (single isomer, unassigned) [Example 154, 6-(1-(8-(cyclopropylmethyl)-8-azabicyclo[3.2.1]octan-3-yl)piperidin-4-yl)-1,4-dimethyl-2-(4-(methylsulfonyl)phenyl)-1H-benzo[d]imidazole] | > 25000 nM | – | 30 nM | 9000 nM | 30 nM | –
CN(C)C1CCN(Cc2ccc(-c3ccc4nc(-c5ccc(S(C)(=O)=O)cc5)n(C)c4c3)cc2)CC1 [Example 375, N,N-dimethyl-1-(4-(1-methyl-2-(4-(methylsulfonyl)phenyl)-1H-benzo[d]imidazol-6-yl)benzyl)piperidin-4-amine] | 400 nM | 200 nM | 203 nM | 1300 nM | – | –
COc1ccc(-c2nc3ccc(C4CCN(C5CCN(C6CC6)CC5)CC4)cc3n2CC(F)F)cc1OC [Example 33, 6-(1′-cyclopropyl-[1,4′-bipiperidin]-4-yl)-1-(2,2-difluoroethyl)-2-(3,4-dimethoxyphenyl)-1H-benzo[d]imidazole] | 35000 nM | 680 nM | 681 nM | 8100 nM | – | –
